Reference: patent US20150258059A1, “ANTIMICROBIAL AND RADIOPROTECTIVE COMPOUNDS” (BioDiem, Ltd, priority 2001, published 2015)
≈ marks a conversion by molar mass, not a printed value. Where two headings read alike, the source gives them in different places. Marks after values point to notes of the source that are not given here.

Tests used:
S. aureus [1] = assay: MIC in increasing concentrations of plasma; assay type: cell-based; conditions: Staphylococcus aureus
Source text: (§1) […]. Serum binding is significant in drug distribution and bioavailability.
(§2) […]. Bactericidal activity is much more affected than inhibitory activity.

Streptococcus pyogenes = assay: MIC in increasing concentrations of plasma; assay type: cell-based
Source text: as §1, §2

Trichophyton = assay: Sensitivity of pathogenic fungi; assay type: cell-based; conditions: Inoculation 10^2
[2] = system: Aspergillus fumigatus asexual exospores; assay: Sporicidal activity; assay type: cell-based; conditions: 512 μg/mL in water+Tween-20; 24 hrs and 6 hrs
Experimental: Aspergillus fumigatus asexual exospores
Compound (1) in water+Tween-20® was tested for sporicidal activity up to 24 hrs.

Shigella sonnei B-720 = assay: Sensitivity of strains: suppression of growth; assay type: cell-based; conditions: Compound (1) 1.0%; antibiotics disc method
Salmonella typhimurium = assay: Agar plug diffusion, zone of retardation; conditions: plug impregnated at 0.5%
Bacillus sp. B-575 = assay: Sensitivity of strains: suppression of growth; assay type: cell-based; conditions: Compound (1) 1.0%; antibiotics disc method; note: key: + sensitive strains; + moderately sensitive strains; − stable strains
[3] = system: Staphylococci epidermidis B-513; assay: Agar diffusion assay
S. aureus [4] = assay: Antibacterial activity in the presence of blood, macrodilution; assay type: cell-based
[5] = system: Acinetobacter calcoaceticus; assay: Rate of kill, viable counts; conditions: in 6 h
[6] = system: Campylobacter jejuni 54/1-2; assay: MIC/MMC against clinical strains of Campylobacter spp.; conditions: Table 18; clinical strain isolated from humans
Rhodotorula rubra = assay: NCCLS broth macro-dilution MIC/MFC (RPMI); assay type: cell-based; conditions: Table 10, 4 day, 30° C.
[7] = system: six bacterial test cultures; assay type: cell-based
Aspergillus fumigatus = assay: microbe, parasite or virus in culture; assay type: cell-based; conditions: for MIC: Aspergillus fumigatus
C. laniolis 54/6 = assay: MIC/MMC against clinical strains of Campylobacter spp.; conditions: Table 18; clinical strain isolated from humans
Candida albicans [8] = assay: Impregnated agar serial double dilutions; conditions: meat peptone agar
M. catarrhalis = assay: Antibacterial activity in the presence of blood, macrodilution; assay type: cell-based; conditions: for MIC: Moraxella catarrhalis
[9] = system: Campylobacter jejuni RMIT FF3; assay: NCCLS broth microdilution MIC/MBC; assay type: cell-based; conditions: Table 9, 48 h
F. chlamydosporum = assay: M38-P microdilution MIC/MFC; assay type: cell-based; conditions: Table 16, 48 h, 35° C.
C. hyointestinalis 54/4 = assay: MIC/MMC against clinical strains of Campylobacter spp.; conditions: Table 18; clinical strain isolated from humans
Microsporum gypseum = assay: M38-P microdilution MIC/MFC; assay type: cell-based; conditions: Table 16, Dermatophytes
[10] = system: Shigella flexneri M-2A6907; assay: Sensitivity of strains: suppression of growth; assay type: cell-based; conditions: Compound (1) 1.0%; antibiotics disc method
[11] = system: Staphylococcus aureus B-685; assay: Sensitivity of strains: suppression of growth; assay type: cell-based; conditions: Compound (1) 1.0%; antibiotics disc method
[12] = system: E. faecalis-clinical isolate 1; assay: microbe, parasite or virus in culture; assay type: cell-based
Candida albicans [13] = assay: microbe, parasite or virus in culture; assay type: cell-based; conditions: for MIC: Candida albicans
Corynebacterium B-670 = assay: Agar diffusion assay; assay type: cell-based
[14] = system: Salmonella typhimurium M-727; assay: Agar diffusion assay
Mycobact tub. H.37RV = assay: Anti-TB effect, serial double dilution in liquid medium; assay type: cell-based, M tuberculosis; conditions: read-out: Minimal Inhibitory Concentration
Proteus vulgaris = assay: microbe, parasite or virus in culture; assay type: cell-based; conditions: for MIC: Proteus vulgaris
[15] = system: Klebsiella pneumoniae strain 312; assay: Impregnated agar serial double dilutions; conditions: meat peptone agar
[16] = before exposure, MHB, read-out: Standard MIC Initial
[17] = after 12 weeks continuous exposure, read-out: Standard MIC Final
[18] = Range to Week 12, No Rising Trend

C/C(=C\c1ccc2c(c1)OCO2)[N+](=O)[O-] [Compound (1)]
MIC (S. aureus [1]; 0% plasma in MHB): 4 µg/mL (≈ 19.3 µM) | MIC (S. aureus [1]; 1% plasma in MHB): 4 µg/mL (≈ 19.3 µM) | MIC (S. aureus [1]; 2.5% plasma in MHB): 8 µg/mL (≈ 38.6 µM) | MIC (S. aureus [1]; 5% plasma in MHB): 8 µg/mL (≈ 38.6 µM) | MIC (S. aureus [1]; 10% plasma in MHB): 16 µg/mL (≈ 77.2 µM) | MIC (S. aureus [1]; 20% plasma in MHB): 32 µg/mL (≈ 154 µM) | MIC (S. aureus [1]; 50% plasma in MHB): 128 µg/mL (≈ 618 µM) | MIC (S. aureus [1]; 100% plasma in MHB): 128 µg/mL (≈ 618 µM) | MIC (Streptococcus pyogenes): 256 µg/mL (≈ 1240 µM) | MIC (Streptococcus pyogenes; 0% plasma in MHB, read-out: MIC): 4 µg/mL (≈ 19.3 µM) | MIC (Streptococcus pyogenes; 1% plasma in MHB, read-out: MIC): 4 µg/mL (≈ 19.3 µM) | MIC (Streptococcus pyogenes; 2.5% plasma in MHB, read-out: MIC): 8 µg/mL (≈ 38.6 µM) | MIC (Streptococcus pyogenes; 5% plasma in MHB, read-out: MIC): 8 µg/mL (≈ 38.6 µM) | MIC (Streptococcus pyogenes; 10% plasma in MHB, read-out: MIC): 16 µg/mL (≈ 77.2 µM) | MIC (Streptococcus pyogenes; 20% plasma in MHB, read-out: MIC): 32 µg/mL (≈ 154 µM) | MIC (Streptococcus pyogenes; 50% plasma in MHB, read-out: MIC): 64 µg/mL (≈ 309 µM) | Number of microbes: Growth (Trichophyton; 0.1%): 0 | Number of microbes: Retardation (Trichophyton; 0.1%): 10^7 | Number of microbes: Growth (Trichophyton; 0.5%): 0 | Number of microbes: Retardation (Trichophyton; 0.5%): 10^7 | Number of microbes: Growth (Trichophyton; 2.0%): 0 | Number of microbes: Retardation (Trichophyton; 2.0%): 10^7 | sporicidal activity [2]: killed A. fumigatus exospores at 24 hrs but not 6 hrs | Suppression of Growth (+/−) (Shigella sonnei B-720): + | Size of zone of retardation of the growth (Salmonella typhimurium): 7 | Suppression of Growth (+/−) (Bacillus sp. B-575): + | Diameter of zone of Growth inhibition ([3]; Concentration in disc 0.1%): 32# mm | Diameter of zone of Growth inhibition ([3]; Concentration in disc 1.0%): 34# mm | Diameter of zone of Growth inhibition ([3]; Concentration in disc 2.0%): 38# mm | MIC (S. aureus [4]; 5% blood): 16 µg/mL | MMC (S. aureus [4]; 5% blood): 256 µg/mL | MIC (S. aureus [4]; 10% plasma): 16 µg/mL | MMC (S. aureus [4]; 10% plasma): 256 µg/mL | MIC (S. aureus [4]; Staphylococcus aureus): 16 µg/mL | Log reduction in viable count ([5]; 256 μg/mL): 1 in 6 h | Log reduction in viable count ([5]; 512 μg/mL): 1 in 6 h | MMC [6]: 2 | MIC (Rhodotorula rubra; Rhodotorula, 96 h): 8 µg/mL (≈ 38.6 µM) | MMC (Rhodotorula rubra): 8 µg/mL | Average zone of retardation [7]: 5.17 | MIC (Aspergillus fumigatus; Table 20, […], after 12 weeks continuous exposure, read-out: MIC Final): 8 µg/mL (≈ 38.6 µM) | MIC (Aspergillus fumigatus; Table 20, […], parent strain, read-out: MIC Initial): 8 µg/mL (≈ 38.6 µM) | MIC (Aspergillus fumigatus; [16]): 8 µg/mL (≈ 38.6 µM) | 7-Day MIC Range (Aspergillus fumigatus; to Wk 5): 8-32 to Wk 5 μg/mL | MMC (C. laniolis 54/6): 2 | Minimal % Compound (1) giving complete inhibition of test culture (Candida albicans [8]): 0.5% | MMC (M. catarrhalis; 5% blood): 8 µg/mL | MMC (M. catarrhalis; 10% plasma): 8 µg/mL | MIC (M. catarrhalis; 5% blood): 4 µg/mL | MIC (M. catarrhalis; 10% plasma): 8 µg/mL | MIC (M. catarrhalis; — (no plasma or blood)): 32 µg/mL | MIC ([9]; Campylobacter jejuni, RMITFF3): 2 µg/mL (≈ 9.65 µM) | MMC [9]: 2 µg/mL | MMC (F. chlamydosporum): 8 µg/mL | MIC (F. chlamydosporum; read-out: MIC): 8 µg/mL (≈ 38.6 µM) | MMC (C. hyointestinalis 54/4): 2 | MIC (Microsporum gypseum; Nannizzia gypsea): 1 µg/mL (≈ 4.83 µM) | MMC (Microsporum gypseum): 8 µg/mL | Suppression of Growth (+/−) [10]: + | Suppression of Growth (+/−) [11]: + | MMC [12]: 32 µg/mL | MMC ([12]; 35° C., 24 hours): 32 µg/mL | MIC ([12]; Enterococcus faecalis, 35° C., 24 hours): 32 µg/mL (≈ 154 µM) | MIC (Candida albicans [13]; [17]): 4 µg/mL (≈ 19.3 µM) | MIC (Candida albicans [13]; [16]): 4 µg/mL (≈ 19.3 µM) | 7-Day MIC Range (Candida albicans [13]; [18]): 16 to 64 µg/mL | Diameter of zone of Growth inhibition (Corynebacterium B-670; Concentration in disc 0.1%): 31# mm | Diameter of zone of Growth inhibition (Corynebacterium B-670; Concentration in disc 1.0%): 35# mm | Diameter of zone of Growth inhibition (Corynebacterium B-670; Concentration in disc 2.0%): 40# mm | Diameter of zone of Growth inhibition ([14]; Concentration in disc 0.1%): 24# mm | Diameter of zone of Growth inhibition ([14]; Concentration in disc 1.0%): 30# mm | Diameter of zone of Growth inhibition ([14]; Concentration in disc 2.0%): 32# mm | MIC (Mycobact tub. H.37RV): 6.25 µg/mL (≈ 30.2 µM) | MIC (Proteus vulgaris; [17]): 128 µg/mL (≈ 618 µM) | MIC (Proteus vulgaris; [16]): 128 µg/mL (≈ 618 µM) | 7-Day MIC Range (Proteus vulgaris; [18]): 64 to 256 µg/mL | Minimal % Compound (1) giving complete inhibition of test culture [15]: 0.12%
